# Laboratory results as given in paper PMC11961260 (Royal Society Open Science, 2025).
# Peptide text beside a SMILES is read from it.
# Assays:
# SARS-CoV-2 main protease = conditions: read-out: IC50 value of the positive control; cited from earlier work
# [1] = target: T1, SARS-CoV-2 main protease (M^pro) (Severe acute respiratory syndrome coronavirus 2, UniProt P0DTD1); assay: SARS-CoV-2 main protease inhibitor screening assay (Cayman Chemicals, Catalogue Number 701960); assay type: biochemical; conditions: for response in SARS-CoV-2 M^pro inhibition screening (in words: active/inactive) / % inhibition of SARS-CoV-2 M^pro: dendron 20 μM; for % inhibition of SARS-CoV-2 M^pro: 30 min pre-incubation, 2 h with substrate, room temperature, three wells
# T1 construct: purchased Cayman Chemicals 701960
# [2] = no reference given; cited from earlier work
# [3] = fluorescence ex 340 nm/em 490 nm
Molecule,response in SARS-CoV-2 M^pro inhibition screening (in words: active/inactive) [1],"% inhibition of SARS-CoV-2 M^pro [1, 3]",also measured
CC(C)C[C@H](NC(=O)OCc1ccccc1)C(=O)N[C@@H](CC1CCNC1=O)C(O)S(=O)(=O)O (stereo partly shown) [GC376],–,–,IC50 (SARS-CoV-2 main protease): 0.15 ± 0.03 µM
"O=C(O)CC[C@H](NC(=O)[C@H](Cc1c[nH]c2ccccc12)NC(=O)CC[C@H](NC(=O)CNC(=O)CCN1c2ccccc2Sc2ccccc21)C(=O)N[C@@H](Cc1c[nH]c2ccccc12)C(=O)N[C@@H](CCC(=O)O)C(=O)O)C(=O)O [compound 114, Ptz-GE(WE-COOH)WE-COOH] (HELM PEPTIDE1{[O=C(CCN1c2ccccc2Sc2ccccc21)[*:2]].G.E.W.E}|PEPTIDE2{W.E}$PEPTIDE1,PEPTIDE2,3:R3-1:R1$$$V2.0)",active,33%,"IC50 ([1]; figure 3B, fluorescence ex 340 nm/em 490 nm): 65 µM"
N[C@@H](CCC(=O)O)C(=O)O [glutamic acid],–,–,pKa1(COOH) [2]: 2.19; pKa2(side chain COOH) [2]: 4.25
Boc-E(WE-COOH)WE-COOH [C91],non-responsiveness,< 25%,–
Ptz-GE(FE-COOH)FE-COOH [compound 112],active,25%,–
Ptz-GE(HE-COOH)HE-COOH [169A],inactive,< 25%,–
Ptz-GE(YE-COOH)YE-COOH [compound 113],inactive,< 25%,–
Ptz-GE(wE-COOH)wE-COOH [169C],active,31%,–
